“Also recorded” adds a separate entry of the source. Where a name gives a salt, the structure may show the parent alone.
Assays:
[1] = test system: human precision-cut lung slices (hPCLS); assay: hPCLS airway dilation assay; type: cell-based
[2] = test system: AKT phosphorylation at S473 (pAKT); assay: Immunoblot of AKT phosphorylation in HASMCs; type: cell-based, human
Method: Isolation and culture of HASMC. Human lungs were received from the National Disease Research Interchange (Philadelphia, PA, USA) and from the International Institute for the Advancement of Medicine (Edison, NJ, USA) and HASM cells were derived from the tracheas. […] Culture of HASM cells was conducted as described previously (Panettieri et al., 1989a). Briefly, cells were cultured in Ham's F-12 medium supplemented with 100 U mL^−1 penicillin, 0.1 mg mL^−1, streptomycin, 2.5 mg mL^−1 amphotericin B and 10% FBS. Medium was replaced every 72 hours. HASM cells were only used during subculture passages 1-4 due to the strong expression of native contractile proteins (Panettieri et al., 1989b). In pertussis toxin studies, cells were treated with 1 μg/ml of pertussis toxin for 18 hours. […]
Immunoblot analysis. […] Phosphorylation of MYPT1, MLC and AKT were assessed, and band densities were normalized to GAPDH, total MYPT1, total MLC, or total AKT band density.
Statistical analysis. […] For experiments comparing agonist responses in primary cells, conditions were all normalized to the basal condition and subsequently analyzed statistically. GraphPad Prism software (La Jolla, CA, USA) was used to determine statistical significance evaluated by Student's unpaired t-test for two groups or ANOVA with Bonferroni post-test for 3 or more groups. […]

[3] = test system: isoproterenol-mediated cAMP production; assay: cAMP assay in HASMCs; type: cell-based, human; conditions: pertussis toxin 18 h, 1 μg/ml; 306±23 fold without PTX
Method: Isolation and culture of HASMC. Human lungs were received from the National Disease Research Interchange (Philadelphia, PA, USA) and from the International Institute for the Advancement of Medicine (Edison, NJ, USA) and HASM cells were derived from the tracheas. […] Culture of HASM cells was conducted as described previously (Panettieri et al., 1989a). Briefly, cells were cultured in Ham's F-12 medium supplemented with 100 U mL^−1 penicillin, 0.1 mg mL^−1, streptomycin, […] amphotericin B and 10% FBS. Medium was replaced every 72 hours. HASM cells were only used during subculture passages 1-4 due to the strong expression of native contractile proteins (Panettieri et al., 1989b). In pertussis toxin studies, cells were treated with 1 μg/ml of pertussis toxin for 18 hours. All pharmacologic inhibitors were used with DMSO as the vehicle at a final concentration of 0.1% and were used to treat HASMC 30 minutes prior to agonist stimulation.
cAMP Assay. HASMCs were seeded in a 24-well plate until about 80% confluent and serum-deprived overnight. Cells were stimulated and lysed using cAMP-Screen System ELISA from Applied Biosystems (Bedford, MA, USA). Experiment was conducted according to manufacturer's protocol.

COc1ccc(CC(C)NCC(O)c2ccc(O)c(NC=O)c2)cc1 (centres unmarked) [Formoterol, formoterol fumarate dihydrate]
EC50 ([1]; Homo sapiens, read-out: log EC50, reversal of carbachol-induced bronchoconstriction (converted)): 0.501 µM

pertussis toxin
effect on carbachol-induced AKT phosphorylation compared to vehicle ([2]; pertussis toxin 18 h, 1 μg/ml before carbachol 10 μM 10 min, vehicle 0.01% DMSO): little effect
isoproterenol-mediated cAMP elevation in the presence of carbachol (fold over basal) [3]: 461±37 fold

rhosin
carbachol-induced phosphorylation of AKT (fold over basal) ([2]; primary HASMCs, rhosin 10 μM 30 minutes, carbachol 10 μM 10 min, vehicle 4.4±0.8 fold): 0.6±0.1 fold
bronchodilation of carbachol-preconstricted hPCLS ([1]; increasing doses of rhosin after carbachol, compared with formoterol): comparable to formoterol; also recorded: reverses carbachol-induced bronchoconstriction in a dose-dependent manner

Source: patent publication US20250057836A1, “Compositions And Methods Targeting G12 Signaling For Bronchodilator Therapy” (Rutgers, The State University of New Jersey, priority 2017, published 2025)
